The numbers were not newly measured in patent US20220183969A1, “OCULAR INSERT CONTAINING A GLUCOCORTICOID” (Ocular Therapeutix, Inc., priority 2020, published 2022), which cites them from elsewhere.

SMILES strings stand for the structures.

The conditions of this series: for Equivalent Dose: established equivalent oral dose; for Relative Potency: oral glucocorticoid potency with reference to cortisol.

As for `C[C@@H]1C[C@H]2[C@@H]3CCC4=CC(=O)C=C[C@]4(C)[C@@]3(F)[C@@H](O)C[C@]2(C)[C@@]1(O)C(=O)CO` [Dexamethasone, 9-Fluor-11β,17,21-trihydroxy-16α-methyl-pregna-1,4-dien-3,20-dion], the “Equivalent Dose” value is recorded as 0.8 mg and the “Relative Potency” value is on record as 25-80.

Take `C[C@]12CCC(=O)C=C1CC[C@@H]1[C@@H]2[C@@H](O)C[C@@]2(C)[C@H]1CC[C@]2(O)C(=O)CO` [Cortisol]: the “Equivalent Dose” value is given as 20 mg and the “Relative Potency” value is on record as 1.

As to `C[C@]12C=CC(=O)C=C1CC[C@H]1[C@@H]3C[C@@H](O)[C@](O)(C(=O)CO)[C@@]3(C)C[C@H](O)[C@@]12F` [Triamcinolone], the “Equivalent Dose” value is 4 mg and the “Relative Potency” value is given as 5.

In the case of `C[C@]12C=CC(=O)C=C1CC[C@@H]1[C@@H]2[C@@H](O)C[C@@]2(C)[C@H]1CC[C@]2(O)C(=O)CO` [Prednisolone], the “Equivalent Dose” value is listed as 5 mg and the “Relative Potency” value is recorded as 4.
